Where “and” joins values, the source holds several entries; their conditions need not be identical. Equal entries are not always repeated.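 Protocol summary: plate cells (96-well), add compound at 5 concentrations, incubate 48 h, interpolate endpoints linearly. GI50 is the concentration that inhibits growth by half. Definition used: TGI = concentration required for complete inhibition of growth.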
What was measured:
Test in all cases: NCI tumour cell line growth inhibition, 48 h
LOX IMVI melanoma = test system: LOX IMVI melanoma
NCI-H23 lung = test system: NCI-H23 lung
RPMI-8226 leukemia = test system: RPMI-8226 leukemia
RXF 393 renal = test system: RXF 393 renal
SW-620 colon = test system: SW-620 colon
NCI-H226 lung = test system: NCI-H226 lung
SF-268 CNS = test system: SF-268 CNS
T-47D breast = test system: T-47D breast
OVCAR-8 ovarian = test system: OVCAR-8 ovarian
SR leukemia = test system: SR leukemia

SMILES	GI50 (LOX IMVI melanoma) [µM]	TGI (LOX IMVI melanoma)	GI50 (NCI-H23 lung) [µM]	TGI (NCI-H23 lung)	GI50 (RPMI-8226 leukemia) [µM]	TGI (RPMI-8226 leukemia)	GI50 (RXF 393 renal) [µM]	GI50 (SW-620 colon) [µM]	TGI (SW-620 colon)	GI50 (NCI-H226 lung) [µM]	GI50 (SF-268 CNS) [µM]	TGI (SF-268 CNS)	TGI (T-47D breast) [µM]	GI50 (OVCAR-8 ovarian) [µM]	TGI (OVCAR-8 ovarian)	GI50 (SR leukemia) [µM]	TGI (SR leukemia)	TGI (RXF 393 renal) [µM]	TGI (NCI-H226 lung) [µM]	GI50 (T-47D breast) [µM]
Cc1cc(NC(=O)NC(=O)c2ccccc2NC(=O)CN)ccc1Oc1ncc(Br)cn1	0.624	34.1 µM and > 100 µM	0.331	15.5 µM and 13.8 µM	0.306	57.1 µM and > 100 µM	< 0.01	0.506	23.4 µM and > 100 µM	0.238	0.608	43.2 µM and 29.5 µM	47.4	0.65	45.7 µM and 17.8 µM	0.0302	55.8 µM and > 100 µM			
COc1ccc(-c2ccccc2)cc1-c1c(Nc2cc(Cl)cc(Cl)c2O)c(=O)c1=O	1.72	> 50 µM	1.38	> 50 µM	0.957	2.71 µM	1.48	1.7	> 50 µM	1.57	1.31	> 50 µM	> 50	1.84	> 50 µM	1.61	21.8 µM	> 50	> 50	1.7
Cc1cc(C)c2c(N)c3cccc(C)c3nc2n1	1.7	4.62 µM	1.59	3.96 µM	2.14	6.78 µM	1.64	1.94	9.29 µM	1.2	2.15	6.3 µM	6.25	1.55	14.8 µM	0.703	3.94 µM	3.57	4.49	2.03
Cc1cc2nc3c4cccc(O)c4n(CCN(C)C)c3nc2cc1C	1.24	2.6 µM	3.07	16 µM	1.36	4.62 µM	2.48	1.53	8.08 µM	3.72	4.23	27.6 µM	27.9	1.83	10.3 µM	0.767	7.03 µM	8.98	52.9	3.8
Cc1ccc(/C(=C/C=C(C#N)C#N)Sc2ccccn2)cc1	1.83	4.05 µM	3.68	10.9 µM			15.6	0.474	1.96 µM	2.53	3.37	12.3 µM	> 24.7	7.41	24.3 µM	3.06	10.4 µM	> 28.1	7.06	4
COc1cc(OC)cc(-c2cncn2-c2ccc(-c3nc4cc(OC)cc(OC)c4s3)cc2)c1	5.48	> 100 µM	10.3	> 100 µM			6.58			18.5	11.3	> 100 µM	> 100	14.5	> 100 µM	3.3	> 100 µM	> 100	> 100	5.77
CO/N=C(/COc1c(-c2ccccc2)oc2ccccc2c1=O)c1ccc(F)cc1	69.9	> 100 µM	> 100	> 100 µM	72.1	> 100 µM	76.6	> 100	> 100 µM	> 100			> 100	53	> 100 µM	22	> 100 µM	> 100	> 100	> 100
CC(C)=CC1CC(C)C2(CCC3(C)CC4C(C(=O)CC4(C)O)/C(C=O)=C\CC32)O1 (centres undefined)		0.182 µM		0.264 µM		0.0613 µM						0.275 µM	0.143		0.214 µM		0.0945 µM	0.098	0.147	
NC1=NC(c2ccc(F)cc2)C2=C(N1)c1ccc3ccccc3c1OCC2 (centres undefined)	> 100	> 100 µM	50.7	> 100 µM			18.7			9.57	18.2	> 100 µM	> 100	14.5	> 100 µM	2.37	> 100 µM	> 100	57.4	13.5
N#C[C@H]1Nc2ccccc2[C@@H](O)C1O (some centres undefined)		> 100 µM		> 100 µM		> 100 µM			> 100 µM			> 100 µM	> 100		> 100 µM		> 100 µM	> 100		
CC[C@@]1(O)C(=O)OCc2c1cc1n(c2=O)Cc2cc3c(NC(=O)CN)cccc3nc2-1				4.26 µM		28.6 µM			> 100 µM			> 39.8 µM	0.744		> 43.8 µM		< 0.0121 µM	0.354	3.79	
CO/C(=N\N=C\c1cccc(C(F)(F)F)c1)c1ccncc1	10.2	> 100 µM		42.6 µM	7.15	81.9 µM			> 100 µM				> 100	17.4	> 100 µM	3.33	46.3 µM	33.2	27.4	
CN(C)S(=O)(=O)c1ccc(Nc2ccc(O)c3c2C(=O)c2c([N+](=O)[O-])ccc(O)c2C3=O)cc1		> 100 µM		> 100 µM		> 100 µM			> 100 µM			> 100 µM	> 100		> 100 µM		> 100 µM	> 100		
